Laboratory results as given in patent US20170121322A1, “BET-PROTEIN INHIBITING 3,4-DIHYDROPYRIDO[2,3-B]PYRAZINONES WITH META-SUBSTITUTED AROMATIC AMINO- OR ETHER GROUPS” (Bayer Pharma Aktiengesellschaft, priority 2014, published 2017).
One block for each compound: values may come before it.

Columns and labels:
[1] = biological target: T1, BRD4 bromo domain 1 [BRD4(1)] (Homo sapiens, UniProt O60885); assay: BRD4(1)/acetylated peptide H4 TR-FRET binding assay; settings: His6-BRD4(1) (aa 67-152) vs acetylated histone H4 peptide
T1 construct: N-terminally His6-tagged BRD4(1) (amino acids 67-152); made in house; host or cells: E. coli
Method in brief: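 His6-tagged BRD4(1) (aa 67-152, E. coli-expressed; 10 nM) pre-incubated with compound (0.1 nM–20 μM, duplicates) for 10 min at 22 °C in HEPES pH 7.5 buffer, then biotinylated tetra-acetylated H4 peptide with TR-FRET reagents added. After 1 h at 22 °C and ≥3 h at 4 °C, the 665/620 nm ratio was read; IC50 from a 4-parameter fit.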

MOLM-13 cells = assay: Cell proliferation assay MOLM-13, method 1 (alamarBlue); format: cell-based; settings: Homo sapiens, acute myeloid leukaemia cells, 4000 cells/well, 96-well, 96 hours
Method: (§1) In accordance with the invention, the ability of the substances to inhibit cell proliferation was determined. Cell viability was determined by means of the alamarBlue® reagent (Invitrogen) in a Victor X3 Multilabel Reader (Perkin Elmer). The excitation wavelength was 530 nm and the emission wavelength […].
The MOLM-13 cells (DSMZ, ACC 554) were seeded at a concentration of 4000 cells/well in 100 μl of growth medium (RPMI1640, 10% FCS) on 96-well microtitre plates (method 1).
(§2) After overnight incubation at 37° C., the fluorescence values (CI values) were determined. Then the plates were treated with various substance dilutions (1E-5 M, 3E-6 M, 1E-6 M, 3E-7 M, 1E-7 M, 3E-8 M, 1E-8 M) and incubated at 37° C. over 96 hours (MOLM-13, B16F10, CHL-1 cells) or 120 hours (MOLP-8 cells). Subsequently, the fluorescence values were determined (CO values). For the data analysis, the CI values were subtracted from the CO values and the results were compared between cells which had been treated with various dilutions of the substance or only with buffer solution. The IC50 values (substance concentration needed for 50% inhibition of cell proliferation) were calculated therefrom.
(§3) The substances were tested in the cell lines in Table 2, which represent the indications specified by way of example: […]

CHL-1 cells = assay: Cell proliferation assay CHL-1 (alamarBlue); format: cell-based; settings: Homo sapiens, melanoma (BRAF wild-type) cells, 96 hours
Method: as §1
The CHL-1 cells (ATCC, CRL-9446) were seeded at a concentration of 1000 cells/well in 100 μl of growth medium (DMEM with glutamine, 10% FCS) on 96-well microtitre plates.
as §2, §3

B16F10 cells = assay: Cell proliferation assay B16F10 (alamarBlue); format: cell-based; settings: Mus musculus, B16-F10, melanoma (BRAF wild-type) cells, 96 hours
Method: as §1
The B16F10 cells (ATCC, CRL-6475) were seeded at a concentration of 300-500 cells/well in 100 μl of growth medium (DMEM with phenol red, 10% FCS) on 96-well microtitre plates.
as §2, §3

Compound: COc1ccc(S(C)(=O)=O)cc1Nc1ccc2c(n1)N(C1CCOCC1)[C@H](C)C(=O)N2C [Example 3, (3R)-6-{[2-Methoxy-5-(methylsulphonyl)phenyl]amino}-1,3-dimethyl-4-(tetrahydro-2H-pyran-4-yl)-3,4-dihydropyrido[2,3-b]pyrazin-2(1H)-one]
IC50 [1]: 79 nM | IC50 (MOLM-13 cells): 175 nM | IC50 (CHL-1 cells): 127 nM | IC50 (B16F10 cells): 199 nM

Compound: CCOC(=O)N=S(C)(=O)c1cccc(Nc2ccc3c(n2)N(C2CCOCC2)[C@H](C)C(=O)N3C)c1 (mixture of isomers) [Example 10, Ethyl [(3-{[(3R)-1,3-dimethyl-2-oxo-4-(tetrahydro-2H-pyran-4-yl)-1,2,3,4-tetrahydropyrido[2,3-b]pyrazin-6-yl]amino}phenyl)(methyl)oxido-λ^6-sulphanylidene]carbamate]
IC50 [1]: 3630 nM | IC50 (MOLM-13 cells): 368 nM | IC50 (CHL-1 cells): 196 nM | IC50 (B16F10 cells): 304 nM

The next lines start with results.

IC50 [1]: 45 nM | IC50 (MOLM-13 cells): 32 nM | IC50 (B16F10 cells): 16 nM
Compound: CC(C)S(=O)(=O)c1ccc(OC(F)(F)F)c(Nc2ccc3c(n2)N(C2CCOCC2)[C@H](C)C(=O)N3C)c1 [Example 38, (3R)-6-{[5-(Isopropylsulphonyl)-2-(trifluoromethoxy)phenyl]amino}-1,3-dimethyl-4-(tetrahydro-2H-pyran-4-yl)-3,4-dihydropyrido[2,3-b]pyrazin-2(1H)-one]
IC50 (CHL-1 cells): 24 nM

IC50 [1]: 18 nM | IC50 (MOLM-13 cells): 19 nM | IC50 (B16F10 cells): 49 nM
Compound: CC(C)S(=O)(=O)c1ccc(OC(F)(F)F)c(Nc2ccc3c(n2)N(C2CCN(C)CC2)[C@H](C)C(=O)N3C)c1 [Example 20, (3R)-6-{[5-(Isopropylsulphonyl)-2-(trifluoromethoxy)phenyl]amino}-1,3-dimethyl-4-(1-methylpiperidin-4-yl)-3,4-dihydropyrido[2,3-b]pyrazin-2(1H)-one]
IC50 (CHL-1 cells): 20 nM

IC50 [1]: 303 nM | IC50 (MOLM-13 cells): 1410 nM | IC50 (B16F10 cells): 1100 nM
Compound: CC1C(=O)N(C)c2ccc(Nc3cccc(S(C)(=O)=O)c3)nc2N1c1ccccc1 (centres unmarked) [Example 17, 1,3-Dimethyl-6-{[3-(methylsulphonyl)phenyl]amino}-4-phenyl-3,4-dihydropyrido[2,3-b]pyrazin-2(1H)-one]
IC50 (CHL-1 cells): 800 nM
